# Experimental data: patent publication US20260124293A1 (priority 2022, published 2026)
# Tested on: WT SARS-CoV-2 or OTS4-5-7-8 in VeroE6/TMPRSS2 cells
# Type: cell-based
structure (smiles),measurement,value
CC(C)C(=O)OC[C@H]1O[C@@H](n2ccc(NO)nc2=O)[C@H](O)[C@@H]1O [molnupiravir],number of infectious virus particles in a TCID50 virus assay on adding a mutagen,reduced the number of infectious virus particles
